Measured values: patent US20260364168A1, “USE OF PROTEIN KINASE C (PKC) ACTIVATING COMPOUNDS AS AN ADJUVANT” (priority 2022, published 2026)
Read-outs that look alike come from different tables or passages of the source.

Assays:
[1] = system: NFκB; experiment: NFκB luciferase reporter gene assay in HeLa-NFκB luciferase reporter cell line; assay type: cell-based; conditions: 16 h; for EC50: 37 °C, luciferase/CTG normalized, read-out: NFκB-luc HeLa cells EC50
Protocol: The PKC activator compounds were evaluated for their effect on NFκB expression using a luciferase reporter gene expression system. (The indicators “K-101,” “K101” and “K-101A” may be used interchangeably in this disclosure and appended figures).
A HeLa-NFκB luciferase reporter cell line (Wuxi Biology) was used to assess a group of PKC activator compounds for their ability to activate NFκB-driven transcription. Two sets of cells at 20000 cells/well were plated, grown overnight, and then treated for 16 h at 37 °C with DMSO, 6 doses of each compound, or TNF-α (final concentration of 10 ng/mL, positive control) in triplicates. One set of cells was assayed for luciferase activity (Promega, Cat #E1500) and the other set was assayed to determine the number of viable cells (for cell number normalization) using CellTiter-Glo (CTG) kit (Promega, Cat #G7570) according to manufacture's procedures. Normalized data (luciferase value/CTG value) were analyzed using GraphPad Prism5 to calculate EC50 for each compound (see Table 3).

[2] = system: human PBMC cells; experiment: cytokine/chemokine gene expression (TaqMan) in human PBMC; conditions: 4 h; for fold induction at 0.01 µM / fold induction at 0.03 µM / fold induction at 0.1 µM / fold induction at 1 µM: Homo sapiens, PBMC
Protocol: Materials and methods: 100 million frozen human PBMC cells were purchased from Allcells (100 million/vial). The cells were thawed and recovered for one day before 1.5-1.8 million cells in 900 μl RPMI1640 with 10% heat-inactivated FBS were seeded in each well of 24-well plates. Various compounds in DMSO stock (500×) were diluted 50-fold with the same media to make 10× compound stock for most compounds. 1 μL of 5 mg/mL PMA was diluted to 99 μL of the media to make 50 μg/mL PMA. For PMA with ionomycin treatment condition, 1.5 μL of 50 μg/mL PMA and 3 μL of 500 μg/mL ionomycin were added to 145.5 μL of the media to make 10× compound stock. Sources of the compounds are as follows: PMA from Abcam (Abcam #ab120297); Ionomycin from Sigma (Sigma #I0634); Resiquimod from Sellect Chem. (Selleckchem #S8133); and LPS from Sigma (Sigma #L6143).
Each treatment condition was performed in duplicates. After treatment, mRNA was extracted from cells and samples from duplicates were combined for TaqMan gene expression assays (ThermoFisher) in triplicates. Expression of 19 genes (IL-1β, IL-2, IL-4, IL-6, IL-8, IL-10, IL-13, IL-18, IL-12p70/IL-12A, IL-12p40/IL-12B, IFN-α, IFN-γ, GM-CSF/CSF2, CCL2/MCP-1, MIP1a/CCL3, TNF-α, MX1, OAS1, ISG15) along with two housekeeping gene controls, 18S and GAPDH, was determined. Target gene expression in each sample was determined by relative quantification (RQ) using the comparative Ct (ΔΔCT) method. This method measures the Ct difference (ΔCT) between target gene and the housekeeping genes (18S & GAPDH), then compares the ΔCT values of treated samples to DMSO-treated control samples. The mean ΔCT value of the DMSO-treated control from two independent DMSO-treated control samples was used. The relative expression level of target gene was calculated by using the equation:
relative expression=2^−ΔΔCT

[3] = 0.03 μM, vs DMSO, 240 min, 0.03 µM
[4] = 0.10 μM, vs DMSO, 240 min, 0.1 µM

CC1=C[C@H]2[C@@]3(O)[C@H](C)C[C@]4(OC(=O)[C@@H](N)Cc5ccccc5)[C@H]([C@@H]3C=C(CO)C[C@]2(O)C1=O)C4(C)C
EC50 ([1]; Homo sapiens, HeLa): 200 to 600 nM

CC1=C[C@H]2[C@@]3(O)[C@H](C)C[C@]4(OC(=O)C(N)CCCCCCc5ccccc5)[C@H]([C@@H]3C=C(CO)C[C@]2(O)C1=O)C4(C)C (stereo partly drawn)
EC50 [1]: 1 to 10 nM
IL-2 gene relative expression [2, 3]: 3.59
IL-13 gene relative expression [2, 3]: 5.87
IL-18 gene relative expression [2, 3]: 0.19
TNF-α gene relative expression [2, 3]: 2.91
CCL2 gene relative expression [2, 4]: 0.40
GM-CSF gene relative expression [2, 4]: 21.01
IFNγ gene relative expression [2, 4]: 11.33
IL-6 gene relative expression [2, 4]: 6.15
IL-10 gene relative expression [2, 4]: 0.12
IL-13 gene relative expression [2, 4]: 121.59
MIP1a (CCL3) gene relative expression [2, 4]: 4.95
fold induction at 0.01 µM ([2]; read-out: CCL2 gene relative expression, 0.01 μM, 4 h, vs DMSO): 1.81
fold induction at 0.03 µM ([2]; read-out: CCL2 gene relative expression, 0.03 μM, 4 h, vs DMSO): 6.53
fold induction at 0.01 µM ([2]; read-out: GM-CSF gene relative expression, 0.01 μM, 4 h, vs DMSO): 1
fold induction at 0.03 µM ([2]; read-out: GM-CSF gene relative expression, 0.03 μM, 4 h, vs DMSO): 1.88
fold induction at 0.01 µM ([2]; read-out: IFN-α gene relative expression, 0.01 μM, 4 h, vs DMSO): 0.73
fold induction at 0.03 µM ([2]; read-out: IFN-α gene relative expression, 0.03 μM, 4 h, vs DMSO): 1.21
fold induction at 0.1 µM ([2]; read-out: IFN-α gene relative expression, 0.10 μM, 4 h, vs DMSO): 0.8
fold induction at 0.01 µM ([2]; read-out: IFNγ gene relative expression, 0.01 μM, 4 h, vs DMSO): 1.46
fold induction at 0.03 µM ([2]; read-out: IFNγ gene relative expression, 0.03 μM, 4 h, vs DMSO): 1.49
fold induction at 0.01 µM ([2]; read-out: IL-1β gene relative expression, 0.01 μM, 4 h, vs DMSO): 0.38
fold induction at 0.03 µM ([2]; read-out: IL-1β gene relative expression, 0.03 μM, 4 h, vs DMSO): 0.94
fold induction at 0.1 µM ([2]; read-out: IL-1β gene relative expression, 0.10 μM, 4 h, vs DMSO): 3
fold induction at 0.01 µM ([2]; read-out: IL-2 gene relative expression, 0.01 μM, 4 h, vs DMSO): 1.32
fold induction at 0.1 µM ([2]; read-out: IL-2 gene relative expression, 0.10 μM, 4 h, vs DMSO): 4.98
fold induction at 0.03 µM ([2]; read-out: IL-4 gene relative expression, 0.03 μM, 4 h, vs DMSO): 1.19
fold induction at 0.1 µM ([2]; read-out: IL-4 gene relative expression, 0.10 μM, 4 h, vs DMSO): 2.78
fold induction at 0.01 µM ([2]; read-out: IL-6 gene relative expression, 0.01 μM, 4 h, vs DMSO): 0.57
fold induction at 0.03 µM ([2]; read-out: IL-6 gene relative expression, 0.03 μM, 4 h, vs DMSO): 1.23
fold induction at 0.01 µM ([2]; read-out: IL-8 gene relative expression, 0.01 μM, 4 h, vs DMSO): 0.44
fold induction at 0.03 µM ([2]; read-out: IL-8 gene relative expression, 0.03 μM, 4 h, vs DMSO): 0.66
fold induction at 0.1 µM ([2]; read-out: IL-8 gene relative expression, 0.10 μM, 4 h, vs DMSO): 0.44
fold induction at 0.01 µM ([2]; read-out: IL-10 gene relative expression, 0.01 μM, 4 h, vs DMSO): 1.59
fold induction at 0.03 µM ([2]; read-out: IL-10 gene relative expression, 0.03 μM, 4 h, vs DMSO): 0.86
fold induction at 0.01 µM ([2]; read-out: IL-12p40 gene relative expression, 0.01 μM, 4 h, vs DMSO): 0.34
fold induction at 0.03 µM ([2]; read-out: IL-12p40 gene relative expression, 0.03 μM, 4 h, vs DMSO): 0.38
fold induction at 0.01 µM ([2]; read-out: IL-12p70 gene relative expression, 0.01 μM, 4 h, vs DMSO): 1.05
fold induction at 0.03 µM ([2]; read-out: IL-12p70 gene relative expression, 0.03 μM, 4 h, vs DMSO): 0.96
fold induction at 0.1 µM ([2]; read-out: IL-12p70 gene relative expression, 0.10 μM, 4 h, vs DMSO): 0.74
fold induction at 0.01 µM ([2]; read-out: IL-13 gene relative expression, 0.01 μM, 4 h, vs DMSO): 0.37
fold induction at 0.01 µM ([2]; read-out: IL-18 gene relative expression, 0.01 μM, 4 h, vs DMSO): 0.63
fold induction at 0.1 µM ([2]; read-out: IL-18 gene relative expression, 0.10 μM, 4 h, vs DMSO): 0.05
fold induction at 0.01 µM ([2]; read-out: ISG15 gene relative expression, 0.01 μM, 4 h, vs DMSO): 0.94
fold induction at 0.03 µM ([2]; read-out: ISG15 gene relative expression, 0.03 μM, 4 h, vs DMSO): 0.97
fold induction at 0.1 µM ([2]; read-out: ISG15 gene relative expression, 0.10 μM, 4 h, vs DMSO): 1.57
fold induction at 0.01 µM ([2]; read-out: MIP1a (CCL3) gene relative expression, 0.01 μM, 4 h, vs DMSO): 1.29
fold induction at 0.03 µM ([2]; read-out: MIP1a (CCL3) gene relative expression, 0.03 μM, 4 h, vs DMSO): 1.67
fold induction at 0.01 µM ([2]; read-out: MX1 gene relative expression, 0.01 μM, 4 h, vs DMSO): 0.77
fold induction at 0.03 µM ([2]; read-out: MX1 gene relative expression, 0.03 μM, 4 h, vs DMSO): 0.65
fold induction at 0.1 µM ([2]; read-out: MX1 gene relative expression, 0.10 μM, 4 h, vs DMSO): 1.06
fold induction at 0.01 µM ([2]; read-out: OAS1 gene relative expression, 0.01 μM, 4 h, vs DMSO): 0.85
fold induction at 0.03 µM ([2]; read-out: OAS1 gene relative expression, 0.03 μM, 4 h, vs DMSO): 0.55
fold induction at 0.1 µM ([2]; read-out: OAS1 gene relative expression, 0.10 μM, 4 h, vs DMSO): 0.71
fold induction at 0.01 µM ([2]; read-out: TNF-α gene relative expression, 0.01 μM, 4 h, vs DMSO): 1.34
fold induction at 0.1 µM ([2]; read-out: TNF-α gene relative expression, 0.10 μM, 4 h, vs DMSO): 6.52

CCOCc1nc2c(N)nc3ccccc3c2n1CC(C)(C)O [Resiquimod, reference compound]
IL-6 induction compared to DMSO control [2]: > 400 fold
IL-12p40 expression (in words) [2]: highly induced
ISG15 expression (in words) [2]: highly induced
MX1 expression (in words) [2]: highly induced
OAS1 expression (in words) [2]: highly induced
fold induction at 1 µM ([2]; read-out: CCL2 gene relative expression): 3.73
fold induction at 1 µM ([2]; read-out: GM-CSF gene relative expression): 8.79
fold induction at 1 µM ([2]; read-out: IFN-α gene relative expression): 1.47
fold induction at 1 µM ([2]; read-out: IFNγ gene relative expression): 1.28
fold induction at 1 µM ([2]; read-out: IL-1β gene relative expression): 102
fold induction at 1 µM ([2]; read-out: IL-2 gene relative expression): 1.21
fold induction at 1 µM ([2]; read-out: IL-6 gene relative expression): 487
fold induction at 1 µM ([2]; read-out: IL-8 gene relative expression): 9.87
fold induction at 1 µM ([2]; read-out: IL-10 gene relative expression): 5.65
fold induction at 1 µM ([2]; read-out: IL-12p40 gene relative expression): 786
fold induction at 1 µM ([2]; read-out: IL-12p70 gene relative expression): 2.48
fold induction at 1 µM ([2]; read-out: IL-13 gene relative expression): 3.52
fold induction at 1 µM ([2]; read-out: IL-18 gene relative expression): 1.33
fold induction at 1 µM ([2]; read-out: ISG15 gene relative expression): 14.8
fold induction at 1 µM ([2]; read-out: MIP1a (CCL3) gene relative expression): 47.7
fold induction at 1 µM ([2]; read-out: MX1 gene relative expression): 17
fold induction at 1 µM ([2]; read-out: OAS1 gene relative expression): 12.7
fold induction at 1 µM ([2]; read-out: TNF-α gene relative expression): 7.38

TNF-α [reference compound]
activation of NFκB luciferase reporter gene expression above DMSO control ([1]; 10 ng/mL): ~10 fold
